Measurements as given in ChEMBL document CHEMBL4130471, “Design and synthesis of tranylcypromine derivatives as novel LSD1/HDACs dual inhibitors for cancer treatment” (Eur J Med Chem, 2017).
Active and inactive are the calls of the source. The rule behind the calls is not given here.

Tests used:
[1] = test system: PC-3; experiment: cells; assay type: functional, cell-based; conditions: Homo sapiens, PC-3, 72 h
Description: Antiproliferative activity against human PC3 cells incubated for 72 hrs by MTT assay

[2] = test system: SW-620; experiment: cells; assay type: functional, cell-based; conditions: Homo sapiens, SW-620, 72 h
Description: Antiproliferative activity against human SW620 cells incubated for 72 hrs by MTT assay

[3] = test system: MCF7; experiment: cells; assay type: functional, cell-based; conditions: Homo sapiens, MCF7, 72 h
Description: Antiproliferative activity against human MCF7 cells incubated for 72 hrs by MTT assay

[4] = test system: MGC-803; experiment: cells; assay type: functional, cell-based; conditions: Homo sapiens, MGC-803, 72 h
Description: Antiproliferative activity against human MGC803 cells incubated for 72 hrs by MTT assay

[5] = target: T1, Amine oxidase [flavin-containing] B (Homo sapiens, UniProt P27338)
T1 sequence (P27338 whole entry): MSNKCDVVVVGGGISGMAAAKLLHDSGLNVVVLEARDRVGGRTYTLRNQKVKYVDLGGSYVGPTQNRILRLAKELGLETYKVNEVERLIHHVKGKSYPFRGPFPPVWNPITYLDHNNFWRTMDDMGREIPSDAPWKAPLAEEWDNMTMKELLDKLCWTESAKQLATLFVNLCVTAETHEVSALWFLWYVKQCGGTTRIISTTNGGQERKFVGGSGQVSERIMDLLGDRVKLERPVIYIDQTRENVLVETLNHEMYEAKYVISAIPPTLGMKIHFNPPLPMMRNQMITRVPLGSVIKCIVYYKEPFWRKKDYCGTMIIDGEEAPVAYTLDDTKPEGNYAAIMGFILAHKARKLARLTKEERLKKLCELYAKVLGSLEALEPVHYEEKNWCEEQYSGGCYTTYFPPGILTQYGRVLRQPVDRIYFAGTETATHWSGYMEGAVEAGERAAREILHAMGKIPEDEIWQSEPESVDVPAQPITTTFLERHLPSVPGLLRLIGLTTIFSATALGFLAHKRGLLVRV
Description: Inhibition of MAOB (unknown origin) using beetle luciferin as substrate by MAO-Glo assay

[6] = target: T2, Lysine-specific histone demethylase 1A (Homo sapiens, UniProt O60341)
[7] = target: Histone deacetylase 1 (Homo sapiens, UniProt Q13547); experiment: Inhibition of C-terminal His-tagged and C-terminal FLAG-tagged human HDAC1 expressed in baculovirus expression system using Ac-peptide substrate incubated for 15 mins by fluorescence based assay
Chain of Histone deacetylase 1 (Q13547 whole entry): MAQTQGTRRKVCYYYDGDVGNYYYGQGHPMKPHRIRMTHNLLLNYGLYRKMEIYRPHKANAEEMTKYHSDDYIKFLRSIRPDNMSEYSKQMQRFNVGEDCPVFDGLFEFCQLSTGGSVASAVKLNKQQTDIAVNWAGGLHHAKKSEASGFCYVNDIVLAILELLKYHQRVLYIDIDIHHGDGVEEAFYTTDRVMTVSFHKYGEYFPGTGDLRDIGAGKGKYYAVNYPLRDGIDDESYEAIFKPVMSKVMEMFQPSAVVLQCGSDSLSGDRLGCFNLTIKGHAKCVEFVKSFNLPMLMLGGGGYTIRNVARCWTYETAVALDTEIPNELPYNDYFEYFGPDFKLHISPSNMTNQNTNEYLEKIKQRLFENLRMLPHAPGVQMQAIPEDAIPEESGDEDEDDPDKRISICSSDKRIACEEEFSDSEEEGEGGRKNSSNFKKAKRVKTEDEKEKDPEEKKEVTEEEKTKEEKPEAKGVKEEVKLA

[8] = target: Histone deacetylase 2 (Homo sapiens, UniProt Q92769)
Chain of Histone deacetylase 2 (Q92769 whole entry, the tested form may be a part): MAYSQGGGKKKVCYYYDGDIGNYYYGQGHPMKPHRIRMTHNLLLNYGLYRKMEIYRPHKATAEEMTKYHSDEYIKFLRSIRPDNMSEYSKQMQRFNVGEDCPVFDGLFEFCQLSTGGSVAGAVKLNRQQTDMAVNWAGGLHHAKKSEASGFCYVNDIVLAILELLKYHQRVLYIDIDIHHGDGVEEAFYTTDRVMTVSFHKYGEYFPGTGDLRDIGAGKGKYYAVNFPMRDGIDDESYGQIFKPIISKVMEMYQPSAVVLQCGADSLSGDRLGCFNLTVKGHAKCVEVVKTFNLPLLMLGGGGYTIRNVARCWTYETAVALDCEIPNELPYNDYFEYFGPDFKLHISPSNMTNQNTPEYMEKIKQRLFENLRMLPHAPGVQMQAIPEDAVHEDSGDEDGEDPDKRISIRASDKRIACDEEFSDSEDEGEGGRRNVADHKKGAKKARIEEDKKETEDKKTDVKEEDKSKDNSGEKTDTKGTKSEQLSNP
Description: Inhibition of C-terminal His-tagged full length human HDAC2 expressed in baculovirus expression system using Ac-peptide substrate incubated for 15 mins by fluorescence based assay

[9] = target: Histone deacetylase 5 (Homo sapiens, UniProt Q9UQL6); experiment: Inhibition of C-terminal His-tagged human HDAC5 (656-1122 residues) expressed in baculovirus expression system using Ac-peptide substrate incubated for 15 mins by fluorescence based assay
Chain of Histone deacetylase 5 (Q9UQL6 whole entry, the tested form may be a part): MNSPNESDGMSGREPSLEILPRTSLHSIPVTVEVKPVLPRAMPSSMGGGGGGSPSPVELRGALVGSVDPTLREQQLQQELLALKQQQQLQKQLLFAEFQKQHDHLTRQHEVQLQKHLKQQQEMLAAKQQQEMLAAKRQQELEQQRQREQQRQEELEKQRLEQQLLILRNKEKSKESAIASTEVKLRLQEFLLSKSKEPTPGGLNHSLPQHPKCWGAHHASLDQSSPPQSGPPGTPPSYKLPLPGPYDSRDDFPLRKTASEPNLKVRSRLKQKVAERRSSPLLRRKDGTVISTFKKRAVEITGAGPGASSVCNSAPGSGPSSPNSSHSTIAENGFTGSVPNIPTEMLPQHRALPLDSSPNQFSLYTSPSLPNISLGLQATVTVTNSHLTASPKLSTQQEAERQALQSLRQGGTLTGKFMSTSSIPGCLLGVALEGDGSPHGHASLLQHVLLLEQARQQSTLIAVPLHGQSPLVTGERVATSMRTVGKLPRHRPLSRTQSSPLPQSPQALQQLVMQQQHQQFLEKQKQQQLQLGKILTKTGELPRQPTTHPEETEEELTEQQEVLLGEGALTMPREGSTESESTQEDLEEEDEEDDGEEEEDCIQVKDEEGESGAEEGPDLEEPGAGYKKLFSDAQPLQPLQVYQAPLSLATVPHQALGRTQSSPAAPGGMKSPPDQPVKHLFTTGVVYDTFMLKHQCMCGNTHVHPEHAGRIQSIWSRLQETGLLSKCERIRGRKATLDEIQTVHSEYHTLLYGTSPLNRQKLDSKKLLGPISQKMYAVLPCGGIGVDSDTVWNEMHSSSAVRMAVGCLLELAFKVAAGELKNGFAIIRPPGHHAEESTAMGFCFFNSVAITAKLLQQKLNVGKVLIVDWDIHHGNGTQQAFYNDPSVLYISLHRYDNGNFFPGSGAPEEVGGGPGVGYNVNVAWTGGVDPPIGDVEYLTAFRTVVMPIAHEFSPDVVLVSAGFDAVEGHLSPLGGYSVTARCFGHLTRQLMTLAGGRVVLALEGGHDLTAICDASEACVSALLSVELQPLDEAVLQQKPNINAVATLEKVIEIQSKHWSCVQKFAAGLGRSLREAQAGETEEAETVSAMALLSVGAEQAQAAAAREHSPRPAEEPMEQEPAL

[10] = test system: A549; experiment: cells; assay type: functional, cell-based; conditions: Homo sapiens, A549, 72 h
Description: Antiproliferative activity against human A549 cells incubated for 72 hrs by MTT assay

[11] = test system: MGC-803; experiment: Potency index, ratio of IC50 for SAHA to IC50 for test compound for antiproliferative activity against human MGC803 cells incubated for 72 hrs by MTT assay; assay type: functional
[12] = target: T2, Lysine-specific histone demethylase 1A; experiment: Inhibition of LSD1 in human MGC803 cells assessed as increase in cellular H3K4me2 levels incubated for 24 hrs by Western blot; assay type: cell-based
[13] = target: T2, Lysine-specific histone demethylase 1A; experiment: Inhibition of LSD1 in human MGC803 cells assessed as increase in cellular H3K9me2 levels incubated for 24 hrs by Western blot; assay type: cell-based
[14] = target: T2, Lysine-specific histone demethylase 1A; experiment: Inhibition of LSD1 in human MGC803 cells assessed as increase in cellular H3K4me3 levels at 1 uM incubated for 24 hrs by Western blot; assay type: cell-based
[15] = target: T2, Lysine-specific histone demethylase 1A; experiment: Inhibition of LSD1 in human MGC803 cells assessed as increase in cellular H3K4me3 levels at 2 uM incubated for 24 hrs by Western blot; assay type: cell-based
[16] = target: Histone deacetylase (Homo sapiens) (UniProt Q13547+O15379+Q9UBN7+Q92769+Q9UQL6+Q8WUI4+Q9BY41+Q96DB2+P56524+Q9UKV0+Q969S8); experiment: Inhibition of HDAC in human MGC803 cells assessed as increase in cellular histone H3 acetylation levels incubated for 24 hrs by Western blot; assay type: cell-based
[17] = test system: MGC-803; experiment: Induction of apoptosis in human MGC803 cells assessed as viable cells level at 2.5 uM incubated for 24 hrs by Annexin-V-FITC/propidium iodide staining based flow cytometry (reference value: 94.6%); assay type: functional
[18] = test system: MGC-803; experiment: Induction of apoptosis in human MGC803 cells assessed as early apoptotic cells level at 2.5 uM incubated for 24 hrs by Annexin-V-FITC/propidium iodide staining based flow cytometry (reference value: 4.37%); assay type: functional
[19] = test system: MGC-803; experiment: Induction of apoptosis in human MGC803 cells assessed as late apoptotic cells level at 2.5 uM incubated for 24 hrs by Annexin-V-FITC/propidium iodide staining based flow cytometry (reference value: 0.447%); assay type: functional
[20] = test system: MGC-803; experiment: Induction of apoptosis in human MGC803 cells assessed as necrotic cells level at 2.5 uM incubated for 24 hrs by Annexin-V-FITC/propidium iodide staining based flow cytometry (reference value: 0.596%); assay type: functional
[21] = test system: MGC-803; experiment: Induction of apoptosis in human MGC803 cells assessed as viable cells level at 5 uM incubated for 24 hrs by Annexin-V-FITC/propidium iodide staining based flow cytometry (reference value: 94.6%); assay type: functional
[22] = test system: MGC-803; experiment: Induction of apoptosis in human MGC803 cells assessed as early apoptotic cells level at 5 uM incubated for 24 hrs by Annexin-V-FITC/propidium iodide staining based flow cytometry (reference value: 4.37%); assay type: functional
[23] = test system: MGC-803; experiment: Induction of apoptosis in human MGC803 cells assessed as late apoptotic cells level at 5 uM incubated for 24 hrs by Annexin-V-FITC/propidium iodide staining based flow cytometry (reference value: 0.447%); assay type: functional
[24] = test system: MGC-803; experiment: Induction of apoptosis in human MGC803 cells assessed as necrotic cells level at 5 uM incubated for 24 hrs by Annexin-V-FITC/propidium iodide staining based flow cytometry (reference value: 0.596%); assay type: functional
[25] = test system: MGC-803; experiment: Induction of apoptosis in human MGC803 cells assessed as viable cells level at 7.5 uM incubated for 24 hrs by Annexin-V-FITC/propidium iodide staining based flow cytometry (reference value: 94.6%); assay type: functional
[26] = test system: MGC-803; experiment: Induction of apoptosis in human MGC803 cells assessed as early apoptotic cells level at 7.5 uM incubated for 24 hrs by Annexin-V-FITC/propidium iodide staining based flow cytometry (reference value: 4.37%); assay type: functional
[27] = test system: MGC-803; experiment: Induction of apoptosis in human MGC803 cells assessed as late apoptotic cells level at 7.5 uM incubated for 24 hrs by Annexin-V-FITC/propidium iodide staining based flow cytometry (reference value: 0.447%); assay type: functional
[28] = test system: MGC-803; experiment: Induction of apoptosis in human MGC803 cells assessed as necrotic cells level at 7.5 uM incubated for 24 hrs by Annexin-V-FITC/propidium iodide staining based flow cytometry (reference value: 0.596%); assay type: functional
[29] = test system: MGC-803; experiment: Induction of apoptosis in human MGC803 cells assessed as viable cells level at 2.5 uM incubated for 48 hrs by Annexin-V-FITC/propidium iodide staining based flow cytometry (reference value: 92.3%); assay type: functional
[30] = test system: MGC-803; experiment: Induction of apoptosis in human MGC803 cells assessed as early apoptotic cells level at 2.5 uM incubated for 48 hrs by Annexin-V-FITC/propidium iodide staining based flow cytometry (reference value: 7.35%); assay type: functional
[31] = test system: MGC-803; experiment: Induction of apoptosis in human MGC803 cells assessed as late apoptotic cells level at 2.5 uM incubated for 48 hrs by Annexin-V-FITC/propidium iodide staining based flow cytometry (reference value: 0.121%); assay type: functional
[32] = test system: MGC-803; experiment: Induction of apoptosis in human MGC803 cells assessed as necrotic cells level at 2.5 uM incubated for 48 hrs by Annexin-V-FITC/propidium iodide staining based flow cytometry (reference value: 0.242%); assay type: functional
[33] = test system: MGC-803; experiment: Induction of apoptosis in human MGC803 cells assessed as viable cells level at 5 uM incubated for 48 hrs by Annexin-V-FITC/propidium iodide staining based flow cytometry (reference value: 92.3%); assay type: functional
[34] = test system: MGC-803; experiment: Induction of apoptosis in human MGC803 cells assessed as early apoptotic cells level at 5 uM incubated for 48 hrs by Annexin-V-FITC/propidium iodide staining based flow cytometry (reference value: 7.35%); assay type: functional
[35] = test system: MGC-803; experiment: Induction of apoptosis in human MGC803 cells assessed as late apoptotic cells level at 5 uM incubated for 48 hrs by Annexin-V-FITC/propidium iodide staining based flow cytometry (reference value: 0.121%); assay type: functional
[36] = test system: MGC-803; experiment: Induction of apoptosis in human MGC803 cells assessed as necrotic cells level at 5 uM incubated for 48 hrs by Annexin-V-FITC/propidium iodide staining based flow cytometry (reference value: 0.242%); assay type: functional
[37] = test system: MGC-803; experiment: Induction of apoptosis in human MGC803 cells assessed as viable cells level at 7.5 uM incubated for 48 hrs by Annexin-V-FITC/propidium iodide staining based flow cytometry (reference value: 92.3%); assay type: functional
[38] = test system: MGC-803; experiment: Induction of apoptosis in human MGC803 cells assessed as early apoptotic cells level at 7.5 uM incubated for 48 hrs by Annexin-V-FITC/propidium iodide staining based flow cytometry (reference value: 7.35%); assay type: functional
[39] = test system: MGC-803; experiment: Induction of apoptosis in human MGC803 cells assessed as late apoptotic cells level at 7.5 uM incubated for 48 hrs by Annexin-V-FITC/propidium iodide staining based flow cytometry (reference value: 0.121%); assay type: functional
[40] = test system: MGC-803; experiment: Induction of apoptosis in human MGC803 cells assessed as necrotic cells level at 7.5 uM incubated for 48 hrs by Annexin-V-FITC/propidium iodide staining based flow cytometry (reference value: 0.242%); assay type: functional
[41] = test system: MGC-803; experiment: Induction of mitochondrial membrane potential loss in human MGC803 cells incubated for 48 hrs by JC1 staining based flow cytometry; assay type: functional, cell-based
[42] = test system: MGC-803; experiment: Induction of mitochondrial membrane potential loss in human MGC803 cells assessed as FL2 red fluorescence level at 2.5 uM incubated for 48 hrs by JC1 staining based flow cytometry (reference value: 5.47%); assay type: functional
[43] = test system: MGC-803; experiment: Induction of mitochondrial membrane potential loss in human MGC803 cells assessed as FL2 red fluorescence level at 5 uM incubated for 48 hrs by JC1 staining based flow cytometry (reference value: 5.47%); assay type: functional
[44] = test system: MGC-803; experiment: Induction of mitochondrial membrane potential loss in human MGC803 cells assessed as FL2 red fluorescence level at 7.5 uM incubated for 48 hrs by JC1 staining based flow cytometry (reference value: 5.47%); assay type: functional
[45] = target: T2, Lysine-specific histone demethylase 1A; remark: listed apart in the source
Description: Inhibition of recombinant LSD1 (157 to 852 amino acids) (unknown origin) expressed in Escherichia coli BL21(DE) using H3K4me2 substrate by amplex red and horseradish peroxidase based fluorescence assay

[46] = target: T3, Amine oxidase [flavin-containing] A (Homo sapiens, UniProt P21397)
T3 sequence (P21397 whole entry): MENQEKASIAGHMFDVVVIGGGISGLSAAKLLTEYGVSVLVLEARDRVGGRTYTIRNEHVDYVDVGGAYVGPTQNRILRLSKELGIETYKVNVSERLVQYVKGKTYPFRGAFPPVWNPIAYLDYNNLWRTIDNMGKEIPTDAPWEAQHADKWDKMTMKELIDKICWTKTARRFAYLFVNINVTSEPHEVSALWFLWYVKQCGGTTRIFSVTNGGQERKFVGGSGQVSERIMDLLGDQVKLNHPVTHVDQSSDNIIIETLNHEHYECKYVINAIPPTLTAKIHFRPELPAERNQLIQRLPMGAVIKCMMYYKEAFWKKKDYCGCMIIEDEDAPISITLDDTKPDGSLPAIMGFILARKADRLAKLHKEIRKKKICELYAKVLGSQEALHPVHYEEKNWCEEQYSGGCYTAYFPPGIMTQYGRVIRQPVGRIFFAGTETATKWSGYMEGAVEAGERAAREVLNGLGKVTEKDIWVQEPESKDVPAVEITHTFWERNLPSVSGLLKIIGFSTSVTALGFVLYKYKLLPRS
Description: Inhibition of MAOA (unknown origin) using beetle luciferin as substrate by MAO-Glo assay

Structure (SMILES): O=C(CCCCCCNC(=O)c1ccc(CNC2(c3ccccc3)CC2)cc1)NO
- IC50 [1]: 5.48 µM
- IC50 [2]: 2.35 µM
- IC50 [3]: 4.28 µM
- IC50 [4]: 0.81 µM
- IC50 [5]: 87.1 µM
- Ratio IC50 [6]: 25
- IC50 [7]: 0.015 µM
- IC50 [8]: 0.023 µM
- IC50 ([9]; read-out: IC50): 16.8 µM
- IC50 [10]: 1.34 µM
- Ratio IC50 [11]: 10
- inhibition [12]: Dose-dependent effect
- inhibition [13]: Dose-dependent effect
- inhibition [14]: inactive
- inhibition [15]: inactive
- inhibition [16]: Dose-dependent effect
- Activity [17]: 72%
- Activity [18]: 22.5%
- Activity [19]: 4.27%
- Activity [20]: 1.22%
- Activity [21]: 60%
- Activity [22]: 26.2%
- Activity [23]: 11%
- Activity [24]: 2.82%
- Activity [25]: 54.7%
- Activity [26]: 31.7%
- Activity [27]: 10.9%
- Activity [28]: 2.71%
- Activity [29]: 25.4%
- Activity [30]: 37.2%
- Activity [31]: 35.2%
- Activity [32]: 2.2%
- Activity [33]: 11.9%
- Activity [34]: 42%
- Activity [35]: 43.9%
- Activity [36]: 2.21%
- Activity [37]: 7.42%
- Activity [38]: 41.4%
- Activity [39]: 49.6%
- Activity [40]: 1.61%
- Activity [41]: Dose-dependent effect
- Activity [42]: 46.6%
- Activity [43]: 83.5%
- Activity [44]: 94%
- IC50 [45]: 1.2 µM
- IC50 [46]: 21.1 µM

Structure (SMILES): O=C(NO)c1ccc(CNC2CC2c2ccccc2)cc1 (centres undefined)
- IC50 [1]: 19.8 µM
- IC50 [2]: 23.3 µM
- IC50 [3]: 17.3 µM
- IC50 [4]: 12 µM
- IC50 [5]: > 100 µM
- IC50 [7]: 1.44 µM
- IC50 [8]: 3.1 µM
- IC50 [9]: Not Active
- IC50 [10]: 6.75 µM
- IC50 [45]: 4.09 µM
- IC50 [46]: 45.8 µM

Structure (SMILES): O=C(CCCCCCC(=O)Nc1ccccc1)NO [VORINOSTAT]
- IC50 [5]: > 100 µM
- IC50 [46]: > 100 µM
